Results taken from paper PMC9181188 (International Journal of Molecular Sciences, 2022).
≈ marks a conversion by molar mass, not a printed value. Where two headings read alike, the source gives them in different places.

Key:
[1] = system: S. aureus ATCC 29213; experiment: MIC, twofold microdilution, standard strain; format: cell-based; settings: Staphylococcus aureus, ATCC29213; 18 h of treatment; read-out: MIC S. aureus ATCC 29213
[2] = system: S. epidermidis ATCC 12228; experiment: MIC, twofold microdilution, standard strain; format: cell-based; settings: Staphylococcus epidermidis, ATCC12228; 18 h of treatment; read-out: MIC S. epidermidis ATCC 12228
[3] = system: S. epidermidis KR 4047 825/19; experiment: MIC, clinical S. epidermidis strain; format: cell-based; settings: Staphylococcus epidermidis, KR4047825/19, quinolone-resistant, 18 h of treatment
[4] = system: S. epidermidis T 5501 851/19; experiment: MIC, clinical S. epidermidis strain; format: cell-based; settings: Staphylococcus epidermidis, T5501851/19, read-out: MIC T 5501 851/19, quinolone-susceptible, 18 h of treatment
[5] = system: M. tuberculosis strains; experiment: MABA MIC, mycobacterial strains as a group; format: cell-based; settings: Mycobacterium tuberculosis, read-out: MIC antimycobacterial (strain not specified)
[6] = target: S. aureus DNA gyrase (Staphylococcus aureus, UniProt P0A0K8+P20831); experiment: biochemical
Chain of S. aureus DNA gyrase (P20831 whole entry): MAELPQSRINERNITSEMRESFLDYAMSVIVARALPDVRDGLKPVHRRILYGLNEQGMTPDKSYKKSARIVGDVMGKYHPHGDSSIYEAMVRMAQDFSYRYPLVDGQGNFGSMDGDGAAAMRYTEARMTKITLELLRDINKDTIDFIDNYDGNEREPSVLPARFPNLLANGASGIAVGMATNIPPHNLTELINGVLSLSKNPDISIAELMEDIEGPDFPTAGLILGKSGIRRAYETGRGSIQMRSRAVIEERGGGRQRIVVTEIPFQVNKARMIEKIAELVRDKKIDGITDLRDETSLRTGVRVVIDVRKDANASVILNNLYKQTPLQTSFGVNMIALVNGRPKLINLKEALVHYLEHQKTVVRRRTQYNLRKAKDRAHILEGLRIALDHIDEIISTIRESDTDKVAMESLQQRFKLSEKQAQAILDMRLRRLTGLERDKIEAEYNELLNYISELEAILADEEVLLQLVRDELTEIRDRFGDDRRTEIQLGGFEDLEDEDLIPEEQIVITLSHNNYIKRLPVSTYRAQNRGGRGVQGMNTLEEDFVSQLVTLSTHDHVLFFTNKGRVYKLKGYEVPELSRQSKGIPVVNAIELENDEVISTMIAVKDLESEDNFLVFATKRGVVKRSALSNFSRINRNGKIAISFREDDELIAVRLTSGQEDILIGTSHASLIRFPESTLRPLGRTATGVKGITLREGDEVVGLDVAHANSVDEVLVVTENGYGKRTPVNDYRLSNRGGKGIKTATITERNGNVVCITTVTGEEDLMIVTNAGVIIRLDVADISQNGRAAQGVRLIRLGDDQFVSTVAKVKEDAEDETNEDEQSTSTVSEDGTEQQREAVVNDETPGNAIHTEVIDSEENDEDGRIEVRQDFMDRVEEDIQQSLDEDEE
Chain of S. aureus DNA gyrase (P0A0K8 whole entry): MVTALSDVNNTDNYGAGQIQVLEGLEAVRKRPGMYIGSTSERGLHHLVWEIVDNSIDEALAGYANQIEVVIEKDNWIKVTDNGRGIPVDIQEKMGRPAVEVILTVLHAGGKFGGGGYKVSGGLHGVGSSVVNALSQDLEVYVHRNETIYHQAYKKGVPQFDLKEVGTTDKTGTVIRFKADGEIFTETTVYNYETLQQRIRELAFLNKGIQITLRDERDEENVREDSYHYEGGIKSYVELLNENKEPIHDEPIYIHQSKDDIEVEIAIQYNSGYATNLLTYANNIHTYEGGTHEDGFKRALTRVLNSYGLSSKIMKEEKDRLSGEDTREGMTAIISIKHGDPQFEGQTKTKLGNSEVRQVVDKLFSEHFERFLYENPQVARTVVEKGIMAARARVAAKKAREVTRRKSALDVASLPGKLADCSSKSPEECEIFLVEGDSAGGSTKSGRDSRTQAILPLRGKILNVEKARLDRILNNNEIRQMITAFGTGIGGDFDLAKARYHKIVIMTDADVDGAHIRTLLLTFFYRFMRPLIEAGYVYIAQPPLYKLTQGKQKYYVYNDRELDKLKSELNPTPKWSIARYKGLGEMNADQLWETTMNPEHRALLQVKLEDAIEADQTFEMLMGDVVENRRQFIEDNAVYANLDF
Protocol: The assay was performed using S. aureus DNA Gyrase Supercoiling kit (Inspiralis). […] Samples were vortexed, centrifuged, and 20 µL of the aqueous phase of each sample was loaded onto a 1% agarose gel and left for 30 min prior to electrophoresis to allow diffusion of salt. Electrophoresis was conducted in TAE buffer for 3 h at 50 V. Gels were stained with ethidium bromide and visualized under UV light in a transilluminator (ChemiDoc MP, Bio Rad, Warsaw, Poland).

[7] = system: S. aureus ATCC 6538; experiment: MIC, twofold microdilution, standard strain; format: cell-based; settings: Staphylococcus aureus, ATCC6538; 18 h of treatment; read-out: MIC S. aureus ATCC 6538
[8] = system: E. coli ATCC 25922; experiment: MIC, twofold microdilution, standard strain; format: cell-based, Escherichia coli; settings: 18 h of treatment; for MIC: Escherichia coli, ATCC25922, read-out: MIC E. coli ATCC 25922
[9] = system: SW480 cells; experiment: MTT assay, SW480; format: cell-based, human; settings: for IC50: Homo sapiens, SW480, 72 h, human primary colon cancer, 72 h, MTT, mean ± SD; for SI SW480: SI = IC50 for normal cell line (HaCaT)/IC50 cancer cell line
[10] = system: PC3 cells; experiment: MTT assay, PC3; format: cell-based, human; settings: for IC50: human metastatic prostate cancer, 72 h, MTT, mean ± SD; for SI PC3: SI = IC50 for normal cell line (HaCaT)/IC50 cancer cell line
[11] = system: S. epidermidis ATCC 35984; experiment: MIC, twofold microdilution, standard strain; format: cell-based; settings: Staphylococcus epidermidis, ATCC35984; 18 h of treatment; read-out: MIC S. epidermidis ATCC 35984
[12] = system: M. tuberculosis Spec. 192 (Sensitive to Tuberculostatics); experiment: MABA (microplate Alamar blue assay) MIC; format: cell-based; settings: Mycobacterium tuberculosis, 336 h, read-out: MIC M. tuberculosis Spec. 192 (Sensitive to Tuberculostatics)
[13] = system: S. epidermidis KR 4243 829/19; experiment: MIC, clinical S. epidermidis strain; format: cell-based; settings: Staphylococcus epidermidis, KR4243829/19, quinolone-susceptible, 18 h of treatment
[14] = system: S. epidermidis T 5253 845/19; experiment: MIC, clinical S. epidermidis strain; format: cell-based; settings: Staphylococcus epidermidis, T5253845/19, quinolone-resistant, 18 h of treatment
[15] = system: HaCaT cells; experiment: MTT assay, HaCaT normal cells; format: cell-based; settings: human immortal keratinocyte cell line, 72 h, mean ± SD
[16] = system: SW620 cells; experiment: MTT assay, SW620; format: cell-based, human; settings: for IC50: human metastatic colon cancer, 72 h, MTT, mean ± SD; for SI SW620: SI = IC50 for normal cell line (HaCaT)/IC50 cancer cell line
[17] = system: S. epidermidis KR 4313 834/19; experiment: MIC, clinical S. epidermidis strain; format: cell-based; settings: Staphylococcus epidermidis, KR4313834/19, quinolone-susceptible, 18 h of treatment
[18] = system: quinolone-susceptible clinical coagulase-negative staphylococci; experiment: MIC, quinolone-susceptible clinical isolates as a group; format: cell-based; settings: Staphylococcus epidermidis, five quinolone-susceptible isolates, read-out: MIC against quinolone-susceptible clinical isolates
[19] = system: S. epidermidis T 5399 848/19; experiment: MIC, clinical S. epidermidis strain; format: cell-based; settings: Staphylococcus epidermidis, T5399848/19, quinolone-susceptible, 18 h of treatment
[20] = system: S. aureus ATCC 25923; experiment: MIC, twofold microdilution, standard strain; format: cell-based; settings: Staphylococcus aureus, ATCC25923; 18 h of treatment; read-out: MIC S. aureus ATCC 25923
[21] = system: standard staphylococci (S. aureus, S. epidermidis); experiment: MIC, standard Gram-positive strains as a group; format: cell-based; settings: Staphylococcus aureus; range over standard Gram-positive strains; read-out: MIC against standard staphylococci
[22] = target: T1, S. aureus topoisomerase IV (Staphylococcus aureus, UniProt P0C1S7+P0C1U9); experiment: S. aureus topoisomerase IV decatenation assay; format: biochemical
T1 construct: purchased Inspiralis
T1 sequence (P0C1U9 whole entry): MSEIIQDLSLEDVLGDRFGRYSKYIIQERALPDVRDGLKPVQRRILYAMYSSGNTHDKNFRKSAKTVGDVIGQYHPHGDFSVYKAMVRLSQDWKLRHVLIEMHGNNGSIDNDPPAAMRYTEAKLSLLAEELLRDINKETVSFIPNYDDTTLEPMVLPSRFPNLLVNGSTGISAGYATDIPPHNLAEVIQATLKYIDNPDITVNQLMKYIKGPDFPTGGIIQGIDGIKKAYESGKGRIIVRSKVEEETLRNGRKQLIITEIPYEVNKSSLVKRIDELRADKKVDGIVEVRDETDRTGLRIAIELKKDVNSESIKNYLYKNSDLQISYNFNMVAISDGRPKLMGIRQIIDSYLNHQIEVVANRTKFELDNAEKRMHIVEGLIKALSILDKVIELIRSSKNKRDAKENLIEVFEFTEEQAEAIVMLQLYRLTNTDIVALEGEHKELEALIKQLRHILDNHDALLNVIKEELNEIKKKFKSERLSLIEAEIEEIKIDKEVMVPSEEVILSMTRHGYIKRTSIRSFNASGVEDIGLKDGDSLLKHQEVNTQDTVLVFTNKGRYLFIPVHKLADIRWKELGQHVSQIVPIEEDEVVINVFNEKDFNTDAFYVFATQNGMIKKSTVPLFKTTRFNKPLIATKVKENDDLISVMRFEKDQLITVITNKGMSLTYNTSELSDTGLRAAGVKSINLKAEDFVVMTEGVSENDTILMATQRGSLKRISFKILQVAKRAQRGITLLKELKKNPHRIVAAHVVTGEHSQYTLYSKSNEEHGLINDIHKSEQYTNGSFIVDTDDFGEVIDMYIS
T1 sequence (P0C1S7 whole entry): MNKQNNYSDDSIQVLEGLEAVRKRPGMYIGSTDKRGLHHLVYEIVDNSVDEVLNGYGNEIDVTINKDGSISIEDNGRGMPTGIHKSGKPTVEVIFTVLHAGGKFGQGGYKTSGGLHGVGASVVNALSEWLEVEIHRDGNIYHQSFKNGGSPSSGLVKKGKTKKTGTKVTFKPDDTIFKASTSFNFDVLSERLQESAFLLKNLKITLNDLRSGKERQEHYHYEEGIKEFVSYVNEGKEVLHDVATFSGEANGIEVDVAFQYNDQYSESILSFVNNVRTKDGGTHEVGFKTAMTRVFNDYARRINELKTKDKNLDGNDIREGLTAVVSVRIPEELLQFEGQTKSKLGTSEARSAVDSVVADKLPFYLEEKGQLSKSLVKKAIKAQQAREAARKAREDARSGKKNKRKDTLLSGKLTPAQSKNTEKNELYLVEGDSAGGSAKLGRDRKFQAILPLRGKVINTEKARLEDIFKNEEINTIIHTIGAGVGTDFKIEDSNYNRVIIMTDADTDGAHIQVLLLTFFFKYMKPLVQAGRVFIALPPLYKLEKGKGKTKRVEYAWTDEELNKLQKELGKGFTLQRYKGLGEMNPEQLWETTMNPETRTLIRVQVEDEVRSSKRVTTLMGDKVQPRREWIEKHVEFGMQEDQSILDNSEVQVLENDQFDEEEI
Protocol: The assay was performed using S. aureus topoisomerase IV […] kit (Inspiralis). Kinetoplast DNA (kDNA) was the substrate for topoisomerase IV.

[23] = system: P. aeruginosa ATCC 27853; experiment: MIC, twofold microdilution, standard strain; format: cell-based; settings: Pseudomonas aeruginosa, ATCC27853; 18 h of treatment; read-out: MIC P. aeruginosa ATCC 27853
[24] = system: S. epidermidis KR 4358/2 840/19; experiment: MIC, clinical S. epidermidis strain; format: cell-based; settings: Staphylococcus epidermidis, KR4358/2840/19; clinical S. epidermidis, quinolone-susceptible, 18 h of treatment; read-out: MIC KR 4358/2 840/19
[25] = system: S. aureus NCTC 4163; experiment: MIC, twofold microdilution, standard strain; format: cell-based; settings: Staphylococcus aureus, NCTC4163; 18 h of treatment; read-out: MIC S. aureus NCTC 4163
[26] = system: M. tuberculosis H37Rv; experiment: MABA (microplate Alamar blue assay) MIC; format: cell-based; settings: Mycobacterium tuberculosis, 336 h, read-out: MIC M. tuberculosis H37Rv
[27] = system: SW480, SW620, and PC3 cancer cell lines; experiment: MTT assay, cancer cell lines as a group; format: cell-based, human; settings: 72 h, all three cancer cell lines (SW480, SW620, PC3), read-out: IC50 against all tested cancer cell lines

Row | SMILES | MIC [1] [µg/mL] | MIC [2] [µg/mL] | MIC [3] [µg/mL] | MIC [4] [µg/mL] | MIC [7] [µg/mL] | MIC [8] [µg/mL] | IC50 [9] [µM] | SI SW480 [9] | IC50 ([10]; Homo sapiens, PC-3, 72 h) [µM] | SI PC3 [10] | MIC [11] [µg/mL] | MIC [13] [µg/mL] | MIC [14] [µg/mL] | IC50 [15] [µM] | IC50 ([16]; Homo sapiens, SW-620, 72 h) [µM] | SI SW620 [16] | MIC [17] [µg/mL] | MIC [19] [µg/mL] | MIC [20] [µg/mL] | MIC [21] [µg/mL] | further results
1 | C/C=C/C(=O)N1CCCC2CN(c3c(F)cc4c(=O)c(C(=O)O)cn(C5CC5)c4c3OC)CC21 (stereo not shown) [Compound 1m, 7-{1-(E)-But-2-enoyl-octahydro-pyrrolo[3,4-b]pyridin-6-yl}-1-cyclopropyl-6-fluoro-8-methoxy-4-oxo-1,4-dihydro-quinoline-3-carboxylic acid] | 0.5 (≈ 1.06 µM) | 1 (≈ 2.13 µM) | 32 (≈ 68.2 µM) | 1 (≈ 2.13 µM) | 0.5 (≈ 1.06 µM) | 16 (≈ 34.1 µM) | 31.6 ± 4.7 | 2.0 | 23.8 ± 3.4 | 2.7 | 0.5 (≈ 1.06 µM) | 0.5 (≈ 1.06 µM) | 64 (≈ 136 µM) | 64.1 ± 2.3 | 24.8 ± 3.2 | 2.6 | 1 (≈ 2.13 µM) | 1 (≈ 2.13 µM) | 0.5 (≈ 1.06 µM) | 0.5 to 2 (≈ 1.06 to 4.26 µM) | MIC [5]: 64 µg/mL (≈ 136 µM); IC50 [6]: > 136 µM; MIC E. coli ATCC 25922 [8]: 2 to 16 µg/mL; MIC [12]: 64 µg/mL (≈ 136 µM); MIC ([18]; 18 h): 0.5 to 1 µg/mL (≈ 1.06 to 2.13 µM); IC50 [22]: 130 µM; MIC [23]: > 512 µg/mL; MIC [24]: 1 µg/mL (≈ 2.13 µM); MIC [25]: 0.5 µg/mL (≈ 1.06 µM); MIC [26]: 64 µg/mL (≈ 136 µM)
2 | C/C=C/C=C/C(=O)N1CCCC2CN(c3c(F)cc4c(=O)c(C(=O)O)cn(C5CC5)c4c3OC)CC21 (stereo not shown) [Compound 2m, 1-Cyclopropyl-6-fluoro-7-{1-(2E,4E)-hexa-2,4-dienoyl-octahydro-pyrrolo[3,4-b]pyridin-6-yl}-8-methoxy-4-oxo-1,4-dihydro-quinoline-3-carboxylic acid] | 1 (≈ 2.02 µM) | 2 (≈ 4.04 µM) | 32 (≈ 64.6 µM) | 2 (≈ 4.04 µM) | 1 (≈ 2.02 µM) | 64 (≈ 129 µM) | 6.3 ± 1.2 | 15.7 | < 5 | 36.7 | 1 (≈ 2.02 µM) | 1 (≈ 2.02 µM) | 32 (≈ 64.6 µM) | 99.1 ± 1.8 | < 5 | 25.4 | 1 (≈ 2.02 µM) | 0.5 (≈ 1.01 µM) | 1 (≈ 2.02 µM) | 0.5 to 2 (≈ 1.01 to 4.04 µM) | IC50 [6]: > 129 µM; IC50 [10]: 2.7 ± 1.1 µM; MIC ([12]; 2 weeks of treatment): 32 µg/mL (≈ 64.6 µM); IC50 [16]: 3.9 ± 1.1 µM; MIC ([18]; 18 h): 0.5 to 1 µg/mL (≈ 1.01 to 2.02 µM); IC50 [22]: > 129 µM; MIC [23]: > 512 µg/mL; MIC [24]: 1 µg/mL (≈ 2.02 µM); MIC [25]: 1 µg/mL (≈ 2.02 µM); MIC ([26]; 2 weeks of treatment): 32 µg/mL (≈ 64.6 µM)
3 | CC/C=C\C/C=C\C/C=C\C/C=C\C/C=C\C/C=C\CCC(=O)N1CCCC2CN(c3c(F)cc4c(=O)c(C(=O)O)cn(C5CC5)c4c3OC)CC21 (stereo not shown) [Compound 8m, 1-Cyclopropyl-7-{1-(4Z,7Z,10Z,13Z,16Z,19Z)-docosa-4,7,10,13,16,19-hexaenoyl-octahydro-pyrrolo[3,4-b]pyridin-6-yl}-6-fluoro-8-methoxy-4-oxo-1,4-dihydro-quinoline-3-carboxylic acid] | 4 (≈ 5.62 µM) | 4 (≈ 5.62 µM) | 512 (≈ 719 µM) | 4 (≈ 5.62 µM) | 2 (≈ 2.81 µM) | 2 (≈ 2.81 µM) | 6.2 ± 1.3 | 13.1 | 5.6 ± 1.9 | 14.5 | 2 (≈ 2.81 µM) | 4 (≈ 5.62 µM) | 512 (≈ 719 µM) | 81.4 ± 3.2 | 9.4 ± 3.7 | 8.7 | 4 (≈ 5.62 µM) | 4 (≈ 5.62 µM) | 2 (≈ 2.81 µM) | 2 to 4 (≈ 2.81 to 5.62 µM) | IC50 [6]: > 89.9 µM; MIC E. coli ATCC 25922 [8]: 2 to 16 µg/mL; MIC ([12]; 2 weeks of treatment): 4 µg/mL (≈ 5.62 µM); IC50 ([27]; Homo sapiens): 5 to 10 µM; IC50 [27]: 5.6 to 10.4 µM; MIC [18]: 4 µg/mL (≈ 5.62 µM); IC50 [22]: > 89.9 µM; MIC [23]: > 512 µg/mL; MIC [24]: 4 µg/mL (≈ 5.62 µM); MIC [25]: 2 µg/mL (≈ 2.81 µM); MIC ([26]; 2 weeks of treatment): 8 µg/mL (≈ 11.2 µM)
4 | CCCCC/C=C\C/C=C\C/C=C\C/C=C\CCCC(=O)N1CCCC2CN(c3c(F)cc4c(=O)c(C(=O)O)cn(C5CC5)c4c3OC)CC21 (stereo not shown) [Compound 13m, 1-Cyclopropyl-6-fluoro-7-{1-(5Z,8Z,11Z,14Z)-icosa-5,8,11,14-tetraenoyl-octahydro-pyrrolo[3,4-b]pyridin-6-yl}-8-methoxy-4-oxo-1,4-dihydro-quinoline-3-carboxylic acid] | 16 (≈ 23.3 µM) | 16 (≈ 23.3 µM) | 256 (≈ 372 µM) | 8 (≈ 11.6 µM) | 16 (≈ 23.3 µM) | 16 (≈ 23.3 µM) | 32.3 ± 4.1 | 2.9 | 28.3 ± 2.8 | 3.3 | 16 (≈ 23.3 µM) | 4 (≈ 5.81 µM) | 512 (≈ 744 µM) | 93.3 ± 2.8 | 39.4 ± 4.1 | 2.4 | 8 (≈ 11.6 µM) | 4 (≈ 5.81 µM) | 16 (≈ 23.3 µM) | 8 to 32 (≈ 11.6 to 46.5 µM) | MIC E. coli ATCC 25922 [8]: 2 to 16 µg/mL; MIC ([12]; 2 weeks of treatment): 4 µg/mL (≈ 5.81 µM); MIC [18]: 2 to 8 µg/mL (≈ 2.91 to 11.6 µM); MIC [23]: > 512 µg/mL; MIC [24]: 8 µg/mL (≈ 11.6 µM); MIC [25]: 16 µg/mL (≈ 23.3 µM); MIC ([26]; 2 weeks of treatment): 4 µg/mL (≈ 5.81 µM)
